Laboratory results: patent publication US6699834B1, “Method for treating cancer” (University of Maryland Biotechnology Institute, priority 1997, dated 2004)
Bridge positions count the residues as written; N and C are the ends. Ends that are not written are not given here.

Key:
[1] = test system: HIV RNA and protein expression; assay: HIV RNA and protein expression in HIV-1 transgenic mice; assay type: in vivo
From the text: The HIV-1 transgenic mice used for this study contain 7.4 kb of foreign DNA, including 5.1 kb of the HIV-1 proviral genome deleted in the gag and pol genes and 2.3 kb of vector (Dickie et al., 1991, Virology 185:109-119). […] In addition, these mice develop severe hyperkeratotic skin lesions with marked expression of gp 120 and nef genes (Kopp et al., 1993, AIDS Res. Hum. Retroviruses 9:267-275; Vasli et al., 1994, AIDS Res. Hum. Retroviruses 10:1241-1250).
Heterozygous transgenic mothers were treated with the hCG preparation subcutaneously twice weekly. Pups received hCG via the mother's milk.
Gene expression was assayed in total RNA extracted from the skin of Tg26 mice with RNAzol. One microgram of RNA was reverse transcribed into cDNA using random hexamer primers and […] reverse transcriptase (Life Technologies, MD) in a final volume of 30 μl. One tenth of the cDNA reactions were used for PCR amplification of various HIV gene sequences (env, tat, rev, nef and vif). In addition, glyceraldehyde 3-phosphate dehydrogenase (GAPHD) mRNA was amplified for each sample for normalization. Following 25 cycles of amplification, 10% of the PCR product was resolved by electrophoresis through 2% agarose gels and processed for Southern hybridization using FITC-labeled oligonucleotide probes complimentary to internal sequences of the amplicons. Detection was performed by chemiluminescence (Amersham) and relative mRNA levels determined by densitometry after normalization with GAPDH mRNA levels.
Finally, certain fractions were tested for their ability to increase survival, promote weight gain and reduce HIV-1 gene expression in HIV-1 transgenic mice as described herein.

KS Y-1 and KS-SLK cells = assay: Kaposi's Sarcoma clonogenic assay in cultured cells; assay type: cell-based, human; conditions: for inhibition of KS cell growth in clonogenic assays (in words): KS Y-1 and KS SLK
Summary of the method: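 KS Y-1 or KS-SLK cells, 5×10^4 seeded in 0.8% methylcellulose, grown 10 days with or without hCG, β-hCG or β-hCG peptide preparations; well-formed colonies counted in triplicate wells.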

[2] = test system: hematopoietic progenitor cells; assay: Hematopoietic progenitor clonogenic assays (CFU-GEMM, BFU-e, CFU-GM); assay type: cell-based, human
Summary of the method: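 Normal bone marrow and cord blood progenitors (2×10^5 cells/ml) grown in methylcellulose with hCG preparations at 200 IU/ml or α/β-subunits and peptides at 100 μg/ml. Colonies (aggregates >50 cells) counted after 10 days of culture.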

prostate cancer cells [3] = assay: Trypan blue cell death assay, prostate cancer cells; assay type: cell-based
Experimental: (§1) The hCG preparations, fractions of the early pregnancy urine and hCG APL™ SUPERDEX™ 200 fractionations (described herein), and certain β-hCG peptides were tested on prostate, lung, breast, and kidney cancer cells in vitro, and on prostate tumors in nude mice. […] The preparations fractions and peptides were also assayed using a clonogenic assay in which cells were seeded in methylcellulose in the presence or absence of test substance and then colonies were counted after a certain period of time. Cells were also examined for apoptosis by confocal microscopy.
The effects of hCG preparations, hCG fractions and β-hCG peptides were tested in prostate cancer cells both in vitro and in vivo. Cells were incubated in either 10% fetal bovine serum (FBS) or 3% fetal bovine serum plus hCG preparations, hCG fractions and β-hCG peptides.

lung cancer cells = assay: Trypan blue cell death assay, lung cancer cells; assay type: cell-based
Experimental: as §1
The effects of hCG preparations, hCG fractions and β-hCG peptides were tested in lung cancer cells in vitro. Lung cancer cells were incubated with the hCG preparations, hCG fractions and β-hCG peptides in both the trypan blue viability assay and the clonogenic assay.

prostate cancer cells [4] = assay: Apoptosis by confocal microscopy, prostate cancer cells; assay type: cell-based; conditions: 48 hours
Experimental: The preparations fractions and peptides were also assayed using a clonogenic assay in which cells were seeded in methylcellulose in the presence or absence of test substance and then colonies were counted after a certain period of time. Cells were also examined for apoptosis by confocal microscopy. FIGS. 18A-H show confocal micrographs of prostate cancer cells treated with an hCG or hCG related preparation and then stained with FITC-labelled actin monoclonal antibody to visualize the cytoskeleton and propidium iodine to visualize the cell nucleus. Condensation of the nucleus and damage to the cytoskeleton are indications of apoptosis.

[5] = listed as cyclized β-hCG peptide of amino acids 44-57

**Q.** For “4. Circ 44-57: β-hCG 44-57 with cysteine substituted at position 44, circularized via disulfide bond (SEQ ID NO:26) (CLQGVLPALPQVVC; disulfide 1-14 (inferred))”, which “inhibition of HIV RNA and protein expression” value ([1]; inhibition of HIV RNA and protein expression in HIV-1 transgenic mice) is on record?
**A.** +++ (“+++” represents greater than 70% effect)

**Q.** And the “HIV-1 gene / protein expression in transgenic mice (in words)” value ([1]; pups dosed via mother's milk)?
**A.** considerable inhibition

**Q.** And the “inhibition of KS cell growth in clonogenic assays (in words)” value (KS Y-1 and KS-SLK cells; listed as cyclic 44-57)?
**A.** strongest anti-tumor effects

**Q.** And the “inhibition of KS cell growth in clonogenic assays (in words)” value (KS Y-1 and KS-SLK cells; [5])?
**A.** inhibited KS cell growth

**Q.** And the KS in vitro (KS Y-1 and KS-SLK cells; inhibition of Kaposi's Sarcoma cell growth in vitro in cultured cells)?
**A.** +++ (“+++” represents greater than 70% effect)

**Q.** And the “promotion of hematopoiesis (in words)” value ([2]; listed as circularized 44-57)?
**A.** directly promoted

**Q.** And the “promotion of hematopoiesis (in words)” value [2, 5]?
**A.** pro-hematopoietic activity

**Q.** And the “Pro-hematopoiesis in vitro Enhancement” value ([2]; relative increase of hematopoietic colony cell number, hCG preparations 200 IU/ml, subunits and peptides 100 μg/ml)?
**A.** +++ (“+++” represents greater than 70% effect)

**Q.** What about the “percentage of cell death (trypan blue)” value (prostate cancer cells [3]; 3% FBS, 200 μg/ml) of the same substance?
**A.** 39%

**Q.** And the “percentage of cell death (trypan blue)” value (prostate cancer cells [3]; 3% FBS, 300 μg/ml)?
**A.** 50%

**Q.** And the “percentage of cell death (trypan blue)” value (prostate cancer cells [3]; 10% FBS, 200 μg/ml)?
**A.** 29%

**Q.** What about the “percentage of cell death (trypan blue)” value (prostate cancer cells [3]; 10% FBS, 300 μg/ml) of the same substance?
**A.** 38%

**Q.** What about the “% dead cells” value (lung cancer cells; 200 μg/ml) of the same substance?
**A.** 42%

**Q.** And the “% dead cells” value (lung cancer cells; 300 μg/ml)?
**A.** 59%

**Q.** And the apoptosis (prostate cancer cells [4])?
**A.** increased apoptosis
